# Experimental data published in patent publication US7803774B2, “Modulators of β-amyloid peptide aggregation” (Praecis Pharmaceuticals, Inc., priority 1999, dated 2010).
# Where a name gives a salt, the structure may show the parent alone.
# Tests used:
# [1] = target: T1, Aβ1-40 (Homo sapiens, UniProt P05067); assay: Nucleation assay (turbidity, change in lag time of Aβ aggregation); type: biochemical; settings: for Nucleation assay data: footnote *: measured at 1.25 μM of compound; for Nucleation assay data / Nucleation assay data 0.3 μM / Nucleation assay data 1 μM / Nucleation assay data 3 μM: Table II; for Nucleation assay data 0.3 μM: 0.3 μM test compound; for Nucleation assay data 0.3 μM / Nucleation assay data 1 μM / Nucleation assay data 3 μM: ΔLag ratio to control; for Nucleation assay data 1 μM: 1 μM test compound; for Nucleation assay data 3 μM: 3 μM test compound; for Nucleation assay data 3 μM / Nucleation assay Δ lag 1.25 μM / Nucleation assay Δ lag 5 μM / Nucleation assay Δ lag […]: 5 μM Aβ1-40; for Nucleation assay Δ lag 1.25 μM: 1.25 μM test compound; for Nucleation assay Δ lag 1.25 μM / Nucleation assay Δ lag […]: ratio to control lag time; for Nucleation assay Δ lag 5 μM: 5 μM test compound, ratio of lag time with compound to lag time of control; for Nucleation assay Δ lag […]: […] test compound
# T1 construct: first Aβ1-40 peptide is dissolved in HFIP
# Text: The nucleation assay is employed to determine the ability of test compounds to alter (e.g. inhibit) the early events in formation of β-AP fibers from monomeric β-AP. Characteristic of a nucleated polymerization mechanism, a lag time is observed prior to nucleation, after which the peptide rapidly forms fibers as reflected in a linear rise in turbidity. The time delay before polymerization of β-AP monomer can be quantified as well as the extent of formation of insoluble fiber by light scattering (turbidity). Polymerization reaches equilibrium when the maximum turbidity reaches a plateau. The turbidity of a solution of natural β-AP in the absence or presence of various concentrations of a β-amyloid modulator compound is determined by measuring the apparent absorbance of the solution at 405 nm (A405nm) over time. The threshold of sensitivity for the measurement of turbidity is in the range of 15-20 μM β-AP. […] This assay can be performed using stirring or shaking to accelerate polymerization, thereby increasing the speed of the assay. Moreover the assay can be adapted to a 96-well plate format to screen multiple compounds.
# To perform the nucleation assay, first Aβ1-40 peptide is dissolved in HFIP (1,1,1,3,3,3-Hexafluoro-2-propanol; Aldrich 10,522-8) at a concentration of 2 mg peptide/ml and incubated at room temperature for 30 min. HFIP-solubilized peptide is sonicated in a waterbath sonicator for 5 min at highest setting, then evaporated to dryness under a stream of argon. The peptide film is resuspended in anhydrous dimethylsulfoxide (DMSO) at a concentration of 6.9 mg/ml (25× concentration), sonicated for 5 min as before, then filtered through a 0.2 micron nylon syringe filter (VWR cat. No. 28196-050). Test compounds are dissolved in DMSO at a 100× concentration. Four volumes of 25×Aβ1-40 peptide in DMSO are combined with one volume of test compound in DMSO in a glass vial, and mixed to produce a 1:1 molar ratio of AP peptide to test compound. For different molar ratios, test compounds are diluted with DMSO prior to addition to Aβ1-40, in order to keep the final DMSO and Aβ1-40 concentrations constant. […] Ten microliters of the mixture is then added to the bottom of a well of a Corning Costar ultra low binding 96-well plate (Coming Costar, Cambridge Mass.; cat. No. 2500). Ninety microliters of water is added to the well, the plate is shaken on a rotary shaken at a constant speed at room temperature for 30 seconds, an additional 100 μl of 2×PTL buffer (20 mM NaH2PO4, 300 mM NaCl, pH 7.4) is added to the well, the plate is reshaken for 30 seconds and a baseline (t=0) turbidity reading is taken by measuring the apparent absorbance at 405 nm using a Bio-Rad Model 450 Microplate Reader. The plate is then returned to the shaker and shaken continuously for 5 hours. Turbidity readings are taken at 15 minute intervals.
# β-amyloid aggregation in the absence of any modulators results in enhanced turbidity of the natural β-AP solution (i.e., an increase in the apparent absorbance at 405 nm over time).
# The modulator compounds were evaluated in nucleation assays utilizing 5 μM Aβ1-40 and either 5 μM, 2.5 μM, 1.25 μM, 3 μM, 1 μM, or 0.3 μM test compound. The change in lag time (ΔLag) is presented as the ratio of the lag time observed in the of the test compound (at either 5 μM, 2.5 μM, 1.25 μM, 3 μM, 1 μM, or 0.3 μM) to the lag time of the control.
# [2] = target: T1, Aβ1-40; assay: as above; type: biochemical; settings: for Nucleation assay data: footnote *: measured at 0.6 μM of compound, Table II
# [3] = BUI#77: IN VIVO: IV BRAIN LEVELS @ 1 HOUR post 1 mL x 1 min IV
# Description: Table printed on a drawing sheet, Fig. 1
# Title: BUI#77: IN VIVO: IV BRAIN LEVELS @ 1 HOUR post 1 mL x 1 min IV
# The patent's description of the figure: FIG. 1 is a table depicting the results from a brain uptake assay.
# First reader's note: Rows with only a Structure cell (l-v-f-f-a, TFA. l-v-f-f-l, TFA. l-f-f-v-l) are bold group headings for the rows below them; the asterisk printed in the gap before the UNIT DOSE block is kept in its own unheaded column.
# T1 sequence (P05067 672-711): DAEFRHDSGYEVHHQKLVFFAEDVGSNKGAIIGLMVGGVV
molecule,measurement,setting,value
2TFA.H-lvf-NH-NH-fvl-H [PPI-1125],Nucleation assay data,[1],>2.5
same,Nucleation assay data,[2],2.0
TFA.H-(lf-D-Cha-vl)-NH2 [PPI-1318],Nucleation assay data 0.3 μM,[1],1
same,Nucleation assay data 1 μM,[1],2
same,Nucleation assay data 3 μM,[1],>5
TFA.N-isopropyl-(Gaffvl)-NH2 [PPI-970],Nucleation assay Δ lag 1.25 μM,[1],1
same,Nucleation assay Δ lag 5 μM,[1],>5
same,Nucleation assay Δ lag […],[1],>5
"CC(C)C[C@@H](N)C(=O)N[C@@H](C(=O)N[C@H](Cc1ccccc1)C(=O)N[C@H](Cc1ccccc1)C(=O)N[C@H](C)C(N)=O)C(C)C [655 | 655, TFA. H-(lvffa)-NH2]",MAX SOLUBILITY | Brain Levels (nM) + CsA | mean,[3],50 nM
same,MAX SOLUBILITY | Brain Levels (nM) | mean,[3],7.9 nM
same,UNIT DOSE (2mg/kg IV) | (+)CsA,[3],22 nM
same,UNIT DOSE (2mg/kg IV) | ALONE,[3],3 nM
"TFA.N,N-diethyl-(affvl)-NH2 [PPI-1006]",Nucleation assay Δ lag 1.25 μM,[1],1
same,Nucleation assay Δ lag 5 μM,[1],1
same,Nucleation assay Δ lag […],[1],1
"TFA.N,N-dimethyl-(affvl)-NH2 [PPI-913]",Nucleation assay Δ lag 1.25 μM,[1],1
same,Nucleation assay Δ lag 5 μM,[1],1
same,Nucleation assay Δ lag […],[1],1
TFA.H-(lvffa)-dimethylamide [PPI-993],Nucleation assay Δ lag 1.25 μM,[1],1
same,Nucleation assay Δ lag 5 μM,[1],1
same,Nucleation assay Δ lag […],[1],1
"CC(C)C[C@@H](N)C(=O)N[C@H](Cc1ccccc1)C(=O)N[C@H](Cc1ccccc1)C(=O)N[C@@H](C(=O)N[C@H](CC(C)C)C(N)=O)C(C)C [578 | 578, TFA. H-(lffvl)-NH2]",MAX SOLUBILITY | Brain Levels (nM) + CsA | mean,[3],57 nM
same,MAX SOLUBILITY | Brain Levels (nM) | mean,[3],7.6 nM
same,UNIT DOSE (2mg/kg IV) | (+)CsA,[3],16 nM
same,UNIT DOSE (2mg/kg IV) | ALONE,[3],2 nM
TFA.H-(Glvffl)-NH2 [PPI-1013],Nucleation assay Δ lag,"[1]; footnote #: measured at 1.25 μM of compound, Table I",>3
same,Nucleation assay Δ lag,"[2]; footnote #: measured at 0.6 μM of compound, Table I",2
"TFA.N,N-dimethyl-(Gaffv1)-NH2 [PPI-803]",Nucleation assay Δ lag 1.25 μM,[1],<1
same,Nucleation assay Δ lag 5 μM,[1],<1
same,Nucleation assay Δ lag […],[1],<1
TFA.N-ethyl-(Gaffvl)-NH2 [PPI-969],Nucleation assay Δ lag 1.25 μM,[1],3
same,Nucleation assay Δ lag 5 μM,[1],>5
same,Nucleation assay Δ lag […],[1],>5
TFA.H-(lvffa)-isopropylamide [PPI-992],Nucleation assay Δ lag 1.25 μM,[1],1
same,Nucleation assay Δ lag 5 μM,[1],3
same,Nucleation assay Δ lag […],[1],1
"CC(C)C[C@@H](N)C(=O)N[C@H](Cc1c(F)c(F)c(F)c(F)c1F)C(=O)N[C@H](Cc1ccccc1)C(=O)N[C@@H](C(=O)N[C@H](CC(C)C)C(N)=O)C(C)C [PPI-1324, TFA.H-(l-[F5]f-fvl)-NH2]",MAX SOLUBILITY | Brain Levels (nM) + CsA | mean,[3],23 nM
same,MAX SOLUBILITY | Brain Levels (nM) | mean,[3],4.1 nM
same,UNIT DOSE (2mg/kg IV) | (+)CsA,[3],9 nM
same,UNIT DOSE (2mg/kg IV) | ALONE,[3],2 nM
TFA.N-methyl-(Gaffvl)-NH2 [PPI-968],Nucleation assay Δ lag 1.25 μM,[1],2
same,Nucleation assay Δ lag 5 μM,[1],>5
same,Nucleation assay Δ lag […],[1],>5
TFA.N-methyl-(lvffl)-NH2 [PPI-1019],Nucleation assay data,[1],>2.5
same,Nucleation assay data,[2],2.0
"TFA.N,N-diethyl-(Gaffvl)-NH2 [PPI-1005]",Nucleation assay Δ lag 1.25 μM,[1],1
same,Nucleation assay Δ lag 5 μM,[1],3
same,Nucleation assay Δ lag […],[1],3
2TFA.H-(lfkvl)-NH2 [PPI-1321],Nucleation assay data 0.3 μM,[1],<1
same,Nucleation assay data 1 μM,[1],<1
same,Nucleation assay data 3 μM,[1],<1
TFA.H-(lf-[F5]f-vl)-NH2 [PPI-1320],Nucleation assay data 0.3 μM,[1],1
same,Nucleation assay data 1 μM,[1],3
same,Nucleation assay data 3 μM,[1],>5
"CN[C@H](CC(C)C)C(=O)N[C@@H](C(=O)N[C@H](Cc1ccccc1)C(=O)N[C@H](Cc1ccccc1)C(=O)N[C@H](C)C(N)=O)C(C)C [1019 | 1019, TFA. N-methyl-(lvffa)-NH2]",MAX SOLUBILITY | Brain Levels (nM) + CsA | mean,[3],29 nM
same,MAX SOLUBILITY | Brain Levels (nM) | mean,[3],7.2 nM
same,UNIT DOSE (2mg/kg IV) | (+)CsA,[3],17 nM
same,UNIT DOSE (2mg/kg IV) | ALONE,[3],4 nM
